How the values were obtained:
[1] = tested on: YAP/TAZ-TEAD transcription; experiment: Reporter gene assay for measuring the inhibition of YAP/TAZ-TEAD transcription (TEAD-responsive element luciferase reporter in Hek293T cells); type: cell-based; conditions: Homo sapiens, HEK-293T, 24 h, Hek293T cells transiently transfected with TEAD-responsive element luciferase reporter; 24 hours incubation
Method in brief: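 Readout is SteadyLite luciferase luminescence from a TEAD-responsive element reporter transiently transfected into Hek293T cells, exposed to compounds for 24 h at 37 °C/5% CO2. IC50 derived from percent inhibition, scaled between vehicle basal activity (0%) and positive control inhibitor (100%).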

NCI-1H226 = experiment: Mesothelioma cell line proliferation assay, H226 (ATPlite); type: cell-based; conditions: Homo sapiens, NCI-H226, 144 h, 6 days with compound
Procedure: (§1) Mesothelioma cell lines, NCI-1H226 and NCI-1H2052 (all sourced from the ATCC cell culture collection) are plated in 96-well plates (Corning® 96 Well White Polystyrene Microplate clear flat bottom, white polystyrene (TC-Treated)), at 1500 cells/well in full medium (RPMI 1640 ATCC modification with L-glutamine, HEPES, Phenol Red, Sodium Pyruvate, High glucose, Low sodium bicarbonate and 10% fetal bovine serum). Cells are incubated overnight at 37° C. in an incubator with 5% C02. Then compounds, dissolved in DMSO, are added in dose-response. Cells are incubated with compound dilutions for another 6 days at 37° C. in an incubator with 5% C02. Cell viability is quantitated using the ATPlite kit (Perkin-Elmer) and the luminescence is read-out using an Envision instrument (Perkin-Elmer). The amount of relative light units produced using the ATPlite kit is used to calculated percent of inhibition.
(§2) The activities of some example compounds are depicted in the table below. The activity ranges A, B and C refer to EC50 values in the mesothelioma cell line proliferation assay as described as follows: “A”: EC50<1 μM; “B”: 1 μM s EC50≤10 μM and “C”: EC50≥10 μM; NT: not tested.

NCI-1H2052 = experiment: Mesothelioma cell line proliferation assay, H2052 (ATPlite); type: cell-based; conditions: Homo sapiens, NCI-H2052, 144 h, 6 days with compound, read-out: H2025 (EC50)
Procedure: as §1, §2

NCI-H226 tumor cells = experiment: In vivo efficacy in a subcutaneous human lung cancer xenograft model (NCI-H226 mesothelioma); design: species or system Female BALB/c Nude Mice; conditions: 100 mg/kg, p.o., BID × 21 days
Procedure: The NCI-H226 tumor cells were maintained in vitro with RPMI-1640 medium supplemented with 10% fetal bovine serum at 37° C. in an atmosphere of 5% CO2 in air. The cells in exponential growth phase were harvested and the cell numbers were quantitated by hemocytometer and cell viability was quantified by Trypan Blue counting before tumor inoculation. Balb/c nude mouse were inoculated with subcutaneously in the right front flank regions with 1×10^7 of NCI-H226 tumor cells in 0.1 mL of PBS mixed with 0.1 ml of Matrigel (1:1) for tumor development. All animals were randomized based on the tumor sizes as well as body weights and randomly allocated to the different study groups (8 mice per group). The randomization started when the mean tumor size at the right rear flank region had reached approximately 172 mm^3. The date of randomization was denoted as Day 0.
Cpd. No. 084 was formulated in Vehicle 1 (PEG400 (40%)+PG (30%)+WFI (30%)) as a 10 mg/ml solution, and dosed orally, twice daily, using 10 μl/g (final dose is 100 mg/kg) for 21 days. Cpd. No. 001 was formulated in Vehicle 2 (PEG400 (65%)+PG (20%)+WFI (15%)) as a 10 mg/ml solution, and dosed orally, twice daily, using 10 μl/g (final dose is 100 mg/kg) for 21 days. After tumor cell inoculation, the animals were checked daily for morbidity and mortality. At the time of routine monitoring, the animals were checked for any effects of tumor growth and treatments on behavior such as mobility, food and water consumption, body weight gain/loss (body weight was measured at least two times per week), and any other abnormalities. Mortality and observed clinical signs were recorded for individual animals. Tumor volumes were measured at least two times weekly in two dimensions using a caliper, and the volume was expressed in mm^3 using the formula: V=(L×W×W)/2, where V is tumor volume, L is tumor length (the longest tumor dimension) and W is tumor width (the longest tumor dimension perpendicular to L).
Tumor growth inhibition (TGI) was used as an indicator of antitumor activities, and was calculated from the relative tumor volumes of the control and treatment groups due to the variance of tumor volumes among groups at Day 0. TGI (%)=(1-T/C)×100%; T/C=MTVt/MTVc, MTVt: mean tumor volume in the treatment groups at a specific measurement day, MTVc: mean tumor volume in the control group at a specific measurement day. Moreover, the difference of TGIs between control and treatment groups was analyzed at a measurement day when all or most of the mice in the control groups were alive. In addition, body weight changes over time in each group were used as an index to evaluate the tolerability of test drugs, and were calculated from the average percentage of body weight changes of each individual mouse relative to their initial body weight at randomization using the following formula: group BW %=mean of ((BWt−BW0)/BW0×100%), BWt: body weight at Day t, BW0: body weight at Day 0.
To compare relative tumor volumes of different groups at a pre-specified day, we first used Bartlett's test to check the assumption of homogeneity of variance across all groups. When the p-value of Bartlett's test is >0.05, we run one-way ANOVA to test overall equality of means across all groups. If the p-value of the one-way ANOVA is <0.05, we further perform post hoc testing by running Tukey's HSD (honest significant difference) tests for all pairwise comparisons, and Dunnett's tests for comparing each treatment group with the vehicle group. When the p-value of Bartlett's test is <0.05, we run Kruskal-Wallis test to test overall equality of medians among all groups. If the p-value of the Kruskal-Wallis test is <0.05, we further perform post hoc testing by running Conover's non-parametric test for all pairwise comparisons or for comparing each treatment group with the vehicle group, both with single-step p-value adjustment. All tests were two-sided unless otherwise specified, and p-values<0.05 were regarded as statistically significant. […]

[2] = day 20, against the compound's own vehicle group

SMILES | IC50 [1] | EC50 (NCI-1H226) | EC50 (NCI-1H2052) | anti-tumor activity in the xenograft mesothelioma model (NCI-H226 tumor cells) | Mean Tumor Volume (mm^3) on day 20 (NCI-H226 tumor cells; day 20, 8 mice per group) | T/C (%) (NCI-H226 tumor cells; [2]) | TGI (%) (NCI-H226 tumor cells; [2])
C=CC(=O)NCC1Cc2ccccc2N(c2ccc(C(F)(F)F)cc2)C1 (stereo not drawn) [compound 084, N-((1-(4-(trifluoromethyl)phenyl)-1,2,3,4-tetrahydroquinolin-3-yl)methyl)acrylamide] | < 1000 nM | < 1000 nM |  | highly statistically significant and strong anti-tumor activity | 165.82 ± 15.42 (8) mm^3 | 38.95% | 61.05%
C=CC(=O)NC1Cc2c(CO)cccc2N(c2ccc(C(F)(F)F)cc2)C1 (stereo not drawn) [compound 139, N-(5-(hydroxymethyl)-1-(4-(trifluoromethyl)phenyl)-1,2,3,4-tetrahydroquinolin-3-yl)acrylamide] | < 1000 nM | < 1000 nM | < 1000 nM |  |  |  | 
C=CC(=O)NC1Cc2ccccc2N(c2ccc(C#N)cc2)C1 (stereo not drawn) [compound 142, N-(1-(4-cyanophenyl)-1,2,3,4-tetrahydroquinolin-3-yl)acrylamide] | < 1000 nM | < 1000 nM | < 1000 nM |  |  |  | 
C=CC(=O)NCC1Cc2ccccc2N([C@H]2CC[C@H](C(F)(F)F)CC2)C1 (stereo partly drawn) [compound 143, trans-N-((1-(4-(trifluoromethyl)cyclohexyl)-1,2,3,4-tetrahydroquinolin-3-yl)methyl)acrylamide] | < 1000 nM | < 1000 nM | < 1000 nM |  |  |  | 
C=CC(=O)NCC1Cc2ccccc2N(c2ccc(C#N)cc2)C1 (stereo not drawn) [compound 147, N-((1-(4-cyanophenyl)-1,2,3,4-tetrahydroquinolin-3-yl)methyl)acrylamide] | < 1000 nM | < 1000 nM | < 1000 nM |  |  |  | 
C=CC(=O)NCC1Cc2ccccc2N(c2ccc(C(F)F)nc2)C1 (stereo not drawn) [compound 149, N-((1-(6-(difluoromethyl)pyridin-3-yl)-1,2,3,4-tetrahydroquinolin-3-yl)methyl)acrylamide] | < 1000 nM | 1000 to 10000 nM | 1000 to 10000 nM |  |  |  | 
CC(=O)NCC1Cc2c(N)cccc2N(c2ccc(C(F)(F)F)cc2)C1 (stereo not drawn) [compound 150, N-((5-amino-1-(4-(trifluoromethyl)phenyl)-1,2,3,4-tetrahydroquinolin-3-yl)methyl)acetamide] | < 1000 nM | < 1000 nM | < 1000 nM |  |  |  | 
C=CC(=O)NC1Cc2c(CC#N)cccc2N(c2ccc(C(F)(F)F)cc2)C1 (stereo not drawn) [compound 164, N-(5-(cyanomethyl)-1-(4-(trifluoromethyl)phenyl)-1,2,3,4-tetrahydroquinolin-3-yl)acrylamide] | < 1000 nM | < 1000 nM | < 1000 nM |  |  |  | 

Now from value to compound, other results behind:

IC50 [1] | SMILES | EC50 (NCI-1H226) | EC50 (NCI-1H2052) | anti-tumor activity in the xenograft mesothelioma model (NCI-H226 tumor cells) | Mean Tumor Volume (mm^3) on day 20 (NCI-H226 tumor cells; day 20, 8 mice per group) | T/C (%) (NCI-H226 tumor cells; [2]) | TGI (%) (NCI-H226 tumor cells; [2])
< 1000 nM | C=CC(=O)NC1Cc2c(NCCOC)cccc2N(c2ccc(C(F)(F)F)cc2)C1 (stereo not drawn) [compound 077, N-(5-((2-methoxyethyl)amino)-1-(4-(trifluoromethyl)phenyl)-1,2,3,4-tetrahydroquinolin-3-yl)acrylamide] | < 1000 nM | < 1000 nM |  |  |  | 
< 1000 nM | C=CC(=O)NC1Cc2c(C#N)cccc2N(c2ccc(C(F)(F)F)cc2)C1 (stereo not drawn) [compound 078, N-(5-cyano-1-(4-(trifluoromethyl)phenyl)-1,2,3,4-tetrahydroquinolin-3-yl)acrylamide] | < 1000 nM | < 1000 nM |  |  |  | 
< 1000 nM | C=CC(=O)NC1Cc2ncccc2N(c2ccc(C(F)(F)F)cc2)C1 (stereo not drawn) [compound 080, N-(1-(4-(trifluoromethyl)phenyl)-1,2,3,4-tetrahydro-1,5-naphthyridin-3-yl)acrylamide] | < 1000 nM | < 1000 nM |  |  |  | 
< 1000 nM | C=CC(=O)NC1Cc2cccnc2N(c2ccc(C(F)(F)F)cc2)C1 (stereo not drawn) [compound 081, N-(1-(4-(trifluoromethyl)phenyl)-1,2,3,4-tetrahydro-1,8-naphthyridin-3-yl)acrylamide] | < 1000 nM | < 1000 nM |  |  |  | 
< 1000 nM | C=CC(=O)NC1Cc2ccncc2N(c2ccc(C(F)(F)F)cc2)C1 (stereo not drawn) [compound 083, N-(1-(4-(trifluoromethyl)phenyl)-1,2,3,4-tetrahydro-1,7-naphthyridin-3-yl)acrylamide] | < 1000 nM | < 1000 nM |  |  |  | 

— patent US20240025856A1, “1,2,3,4-TETRAHYDROQUINOLINE DERIVATIVES AS INHIBITORS OF THE YAP/TAZ-TEAD ACTIVATION FOR TREATING CANCER” (KATHOLIEKE UNIVERSITEIT LEUVEN, priority 2020, published 2024)
